Results on 1 molecule are retold here after patent US20090162413A1 (priority 1998, published 2009).

The test has as its system human coronary artery smooth muscle cells (hCaSMC). Description: 3H-thymidine uptake proliferation assay, hCaSMC. Type of test: cell-based. The settings on record: Homo sapiens; read-out: hCaSMC IC50 Mean ± SEM. The method, then:
Experiments were performed to investigate interactions between zotarolimus (ABT-578) and paclitaxel when administered in combination. The effects of paclitaxel and zotarolimus on the anti-proliferative activity of human coronary artery smooth muscle ([…]) and endothelial […] determined using an in vitro proliferation assay. The proliferation and migration of vascular smooth muscle cells into the vascular neointima is a characteristic pathologic response seen in restenotic lesions (Lafont and Libby, 1998). As a result, in vitro assays which specifically measure the anti-proliferative activity of candidate anti-restenotic compounds on human coronary artery smooth muscle and endothelial cells predict potential anti-restenotic activity in vivo. Compounds or combinations of compounds which attenuate growth factor-mediated human coronary artery smooth muscle cell ([…]) proliferation, as measured by the tritium incorporation assay in vitro, are candidate anti-restenotic agents. The tritium incorporation assay is an accurate and sensitive method to determine cell number and proliferation. […] The attenuation of zotarolimus's anti-proliferative activity by tacrolimus is a clear example of this effect (FIG. 10A). To determine the potential anti-restenotic activity of combinations of zotarolimus and paclitaxel, the proliferation of […] was measured in the presence of each compound and in combination. To determine if paclitaxel attenuated or augmented the activity of zotarolimus the effect of paclitaxel and zotarolimus alone and in combination on growth-factor induced proliferation was determined. Data were analyzed for additivity using an isobologram approach and a combination index analysis. An isobologram is a Cartesian plot of pairs of doses that, in combination, yield a specified level of effect. It is a convenient way of graphically displaying results of drug-combination and similar studies, because paired values of experimental points that fall below or above the line connecting the axial points indicate synergistic and non-synergistic interactions, respectively. Cell proliferation was monitored by following incorporation of ^3H-thymidine into newly synthesized DNA of cells stimulated by serum and growth factors. Exponentially growing […] were seeded into 96-well flat bottom tissue culture plates at 5,000 cells/well (10,000 cells/well for […]). The cells were allowed to attach overnight. The growth medium was removed the following day, and cells were washed twice with un-supplemented (basal) medium to remove traces of serum and growth factors. […] PerkinElmer; Wellesley; MA) was added to each filter well and the plates were counted using a TopCount microplate scintillation counter (PerkinElmer). […]

In the case of `CO[C@H]1C[C@@H]2CC[C@@H](C)[C@@](O)(O2)C(=O)C(=O)N2CCCC[C@H]2C(=O)O[C@H]([C@H](C)C[C@@H]2CC[C@H](n3cnnn3)[C@H](OC)C2)CC(=O)[C@H](C)/C=C(\C)[C@@H](O)[C@@H](OC)C(=O)[C@H](C)C[C@H](C)/C=C/C=C/C=C/1C` [zotarolimus], the IC50 turned out to be 4.2 ± 1.7 nM.

Usually IC50 stands for the concentration at which inhibition is half-maximal.
